Experiment [1] has as its system bladder cancer cell lines. Put plainly: Cell based assay, cell viability (CellTiter-Glo), bladder cancer cell lines. The note with it: 72 hours treatment, 0 to 2 μM, CellTiter-Glo. A digest of the protocol:
(§1)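 Cells were trypsinized, seeded, and left 24 h before compound was added at 0 to 2 μM final. After a further 72 h of culture, viability was read by ATP-based luminescence.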

A further experiment concerns melanoma cell lines. The experiment is described as follows: Cell based assay, cell viability (CellTiter-Glo), melanoma cell lines. The conditions noted are these: Homo sapiens; LOX-IMVI cell line. The method, boiled down: as §1
Experiment [2] concerns cervical carcinoma cell lines. Put plainly: Cell based assay, cell viability (CellTiter-Glo), cervical carcinoma cell lines. The conditions noted are these: Homo sapiens; HeLa cells.
Where [3] appears, read: 5637 cells, read-out: IC50, bladder cancer cell line 5637.
The mark [4] stands for this setting: Homo sapiens, T-24, T24 cells, read-out: IC50, bladder cancer cell line T24.
[5] abbreviates: Homo sapiens, J82 cells, read-out: IC50, bladder cancer cell line J82.

Where two headings read alike, the source gives them in different places. Some results are limits rather than exact numbers.

For `Cc1cc(C[S+]([O-])c2[nH]c3c(Cl)ccc(Cl)c3c(=O)c2C(=O)C(C)C)no1` (stereo not drawn) [Compound 86, 5,8-dichloro-3-isobutyryl-2-(((5-methylisoxazol-3-yl)methyl)sulfinyl)quinolin-4(1H)-one], the IC50 in experiment [1] (setting [3]) was 1360 nM; in experiment [1] (setting [4]), 1020 nM; in experiment [1] (setting [5]), 1610 nM; with melanoma cell lines, 710 nM; in experiment [2] it was above 2000 nM.

Turning to `COC(=O)c1ccc(C[S+]([O-])c2[nH]c3c(Cl)ccc(Cl)c3c(=O)c2C(C)=O)o1` (stereo not drawn) [Compound 89, methyl 5-(((3-acetyl-5,8-dichloro-4-oxo-1,4-dihydroquinolin-2-yl)sulfinyl)methyl)furan-2-carboxylate], the IC50 was above 2000 nM in experiment [1] (setting [3]); 1750 nM in experiment [1] (setting [4]); above 2000 nM in experiment [1] (setting [5]); 1650 nM in the experiment on melanoma cell lines; above 10000 nM in experiment [2].

Consider `Cc1cc(C[S+]([O-])c2[nH]c3c(Br)ccc(Cl)c3c(=O)c2C(=O)C(C)C)no1` (stereo not drawn) [Compound 95, 8-bromo-5-chloro-3-isobutyryl-2-(((5-methylisoxazol-3-yl)methyl)sulfinyl)quinolin-4(1H)-one], for which the IC50 in experiment [1] (setting [3]) is 1230 nM; in experiment [1] (setting [4]), 980 nM; in experiment [1] (setting [5]), 1470 nM; in the experiment on melanoma cell lines, 540 nM; in experiment [2], above 2000 nM.

Values taken from US11464770B2, “Anticancer pharmaceutical composition” (NATIONAL CANCER CENTER, priority 2016, dated 2022).
